# Data from patent publication US6677277B1, “Substituted sulphonyl amino(thio)carbonyl compounds and their use as herbicides” (Bayer Aktiengesellschaft, priority 1996, dated 2004).
# Key:
# Type in all cases: in vivo
# weeds [1] = test: Post-emergence test; conditions: cf. Tables B-1 to B-4
# Protocol: (§1) Post-emergence Test Solvent: 5 parts by weight of acetone Emulsifier: 1 part by weight of alkylaryl polyglycol ether To produce a suitable preparation of active compound, 1 part by weight of active compound is mixed with the stated amount of solvent, the stated amount of emulsifier is added and the concentrate is diluted with water to the desired concentration. Test plants which have a height of 5-15 cm are sprayed with the preparation of the active compound in such a way as to apply the particular amounts of active compound desired per unit area. The concentration of the spray liquor is chosen so that the particular amounts of active compound desired are applied in 1000 l of water/ha. After three weeks, the degree of damage to the plants is rated in % damage in comparison to the development of the untreated control. The figures denote: [table]
# Sorghum [2] = test: Post-emergence test/greenhouse; conditions: post-emergence; for % damage, Sorghum: after three weeks; for Sorghum, % damage: rated after three weeks vs untreated control
# Protocol: as §1
# Lolium [3] = test: Post-emergence test/greenhouse; conditions: 60 g ai./ha, after three weeks
# Protocol: as §1
# Ipomoea = test: Post-emergence test/greenhouse; conditions: for % damage, Ipomoea: after three weeks; for Ipomoea, % damage: rated after three weeks vs untreated control
# Protocol: as §1
# Xanthium = test: Post-emergence test/greenhouse; conditions: post-emergence; for Xanthium, % damage: rated after three weeks vs untreated control
# Protocol: as §1
# Stellaria = test: Post-emergence test/greenhouse; conditions: for % damage, Stellaria: after three weeks; for Stellaria, % damage: rated after three weeks vs untreated control
# Protocol: as §1
# Alopecurus [4] = test: Post-emergence test/greenhouse; conditions: 60 g ai./ha, after three weeks
# Protocol: as §1
# Solanum [5] = test: Post-emergence test/greenhouse; conditions: post-emergence; for % damage, Solanum: after three weeks; for Solanum, % damage: rated after three weeks vs untreated control
# Protocol: as §1
# Sorghum [6] = test: Pre-emergence test/greenhouse; conditions: after three weeks
# Protocol: (§2) Pre-emergence Test Solvent: 5 parts by weight of acetone Emulsifier: 1 part by weight of alkylaryl polyglycol ether To produce a suitable preparation of active compound, 1 part by weight of active compound is mixed with the stated amount of solvent, the stated amount of emulsifier is added and the concentrate is diluted with water to the desired concentration. Seeds of the test plants are sown in normal soil. After about 24 hours, the soil is sprayed with the preparation of the active compound in such a way as to apply the particular amounts of active compound desired per unit area The concentration of the spray liquor is chosen so that the particular amounts of active compound desired are applied in 1000 l of water/ha. After three weeks, the degree of damage to the plants is rated in % damage in comparison to the development of the untreated control. The figures denote: [table]
# Lolium [7] = test: Pre-emergence test/greenhouse; conditions: after three weeks
# Protocol: as §2
# Matricaria = test: Pre-emergence test/greenhouse; conditions: after three weeks
# Protocol: as §2
# Chenopodium = test: Pre-emergence test/greenhouse; conditions: after three weeks
# Protocol: as §2
# Amaranthus = test: Pre-emergence test/greenhouse; conditions: after three weeks
# Protocol: as §2
# Alopecurus [8] = test: Pre-emergence test/greenhouse; conditions: after three weeks
# Protocol: as §2
# Solanum [9] = test: Pre-emergence test/greenhouse; conditions: after three weeks
# Protocol: as §2
# Maize = test: Pre-emergence test/greenhouse; conditions: after three weeks
# Protocol: as §2
# weeds [10] = test: Pre-emergence test; conditions: cf. Tables A-1 to A-5
# Protocol: as §2
# Wheat = test: Post-emergence test/greenhouse; conditions: rated after three weeks vs untreated control
# Protocol: as §1
SMILES,activity against weeds (weeds [1]),activity against weeds (weeds [10]),"Sorghum, % damage (Sorghum [2]; 60 g ai./ha) [%]","Ipomoea, % damage (Ipomoea; 60 g ai./ha)","Xanthium, % damage (Xanthium; 60 g ai./ha) [%]","Stellaria, % damage (Stellaria; 60 g ai./ha) [%]","Wheat, % damage (Wheat; 60 g ai./ha) [%]","Solanum, % damage (Solanum [5]; 60 g ai./ha) [%]","% damage, Sorghum (Sorghum [6]; 125 g ai./ha) [%]","% damage, Lolium (Lolium [7]; 125 g ai./ha) [%]","% damage, Matricaria (Matricaria; 125 g ai./ha) [%]","% damage, Chenopodium (Chenopodium; 125 g ai./ha) [%]","% damage, Amaranthus (Amaranthus; 125 g ai./ha) [%]","% damage, Alopecurus (Alopecurus [8]; 125 g ai./ha) [%]","% damage, Solanum (Solanum [9]; 125 g ai./ha) [%]","% damage, Maize (Maize; 125 g ai./ha) [%]",also measured
CCOc1nn(C(=O)NS(=O)(=O)c2c(SC)cccc2SC)c(=O)n1C [Example 52],very strong activity,,,,,,,,,,,,,,,,"% damage, Sorghum (Sorghum [2]; 60 g ai./ha): 100%; % damage, Lolium (Lolium [3]): 60%; % damage, Ipomoea (Ipomoea; 60 g ai./ha): 90%; % damage, Xanthium (Xanthium; 60 g ai./ha, after three weeks): 95%; % damage, Stellaria (Stellaria; 60 g ai./ha): 95%; % damage, Alopecurus (Alopecurus [4]): 90%; % damage, Solanum (Solanum [5]; 60 g ai./ha): 95%"
COc1nn(C(=O)NS(=O)(=O)c2c(OC(F)(F)F)cccc2SC)c(=O)n1C [Example 32],,very strong activity,,,,,,,,,,,,,,,"% damage, Sorghum (Sorghum [6]; 30 g ai./ha): 90%; % damage, Lolium (Lolium [7]; 30 g ai./ha): 100%; % damage, Matricaria (Matricaria; 30 g ai./ha): 90%; % damage, Chenopodium (Chenopodium; 30 g ai./ha): 100%; % damage, Amaranthus (Amaranthus; 30 g ai./ha): 100%; % damage, Alopecurus (Alopecurus [8]; 30 g ai./ha): 90%; % damage, Solanum (Solanum [9]; 30 g ai./ha): 95%; % damage, Maize (Maize; 30 g ai./ha): 5%"
CCSc1cccc(SCC)c1S(=O)(=O)NC(=O)n1nc(CC)n(C)c1=O [Example 44],very strong activity,,70,95%,100,80,10,95,,,,,,,,,
CCSc1cccc(OC(F)(F)F)c1S(=O)(=O)NC(=O)n1nc(CC)n(C)c1=O [Example 39],very strong activity,,80,80%,95,90,20,95,,,,,,,,,
CCOc1nn(C(=O)NS(=O)(=O)c2c(SCC)cccc2SCC)c(=O)n1C [Example 43],very strong activity,,70,95%,100,90,20,95,,,,,,,,,
"CCOc1nn(C(=O)NS(=O)(=O)c2c(Cl)cccc2SC)c(=O)n1C [Example 1, 5-ethoxy-4-methyl-2-(2-chloro-6-methylthio-phenylsulfonyl-aminocarbonyl)-2,4-dihydro-3H-1,2,4-triazol-3-one]",,very strong activity,,,,,,,90,70,70,60,90,95,100,0,
CCc1nn(C(=O)NS(=O)(=O)c2c(OC)cccc2SC)c(=O)n1C [Example 22],very strong activity,very strong activity,,,,,,,80,100,60,,100,100,100,30,"% damage, Sorghum (Sorghum [2]; 60 g ai./ha): 95%; % damage, Lolium (Lolium [3]): 90%; % damage, Ipomoea (Ipomoea; 60 g ai./ha): 80%; % damage, Stellaria (Stellaria; 60 g ai./ha): 90%; % damage, Alopecurus (Alopecurus [4]): 90%; % damage, Solanum (Solanum [5]; 60 g ai./ha): 80%"
CSc1cccc(C(F)(F)F)c1S(=O)(=O)NC(=O)n1nc(SC)n(C)c1=O [Example 62],,very strong activity,,,,,,,,,,,,,,,"% damage, Sorghum (Sorghum [6]; 60 g ai./ha): 90%; % damage, Lolium (Lolium [7]; 60 g ai./ha): 100%; % damage, Chenopodium (Chenopodium; 60 g ai./ha): 100%; % damage, Amaranthus (Amaranthus; 60 g ai./ha): 100%; % damage, Alopecurus (Alopecurus [8]; 60 g ai./ha): 100%; % damage, Solanum (Solanum [9]; 60 g ai./ha): 100%; % damage, Maize (Maize; 60 g ai./ha): 10%"
CCSc1cccc(OC)c1S(=O)(=O)NC(=O)n1nc(CC)n(C)c1=O [Example 8],,very strong activity,,,,,,,,80,,100,100,100,60,0,
CCSc1cccc(C)c1S(=O)(=O)NC(=O)n1nc(OC)n(C)c1=O [Example 53],very strong activity,,,,,,,,,,,,,,,,"Sorghum, % damage (Sorghum [2]; 125 g ai./ha): 95%; Ipomoea, % damage (Ipomoea; 125 g ai./ha): 95%; Xanthium, % damage (Xanthium; 125 g ai./ha): 100%; Stellaria, % damage (Stellaria; 125 g ai./ha): 90%; Wheat, % damage (Wheat; 125 g ai./ha): 20%; Solanum, % damage (Solanum [5]; 125 g ai./ha): 59%"
CCOc1nn(C(=O)NS(=O)(=O)c2c(SCC)cccc2C(F)(F)F)c(=O)n1C [Example 11],very strong activity,very strong activity,,90%,90,90,0,70,100,90,100,100,100,100,100,10,
CCSc1cccc(C(F)(F)F)c1S(=O)(=O)NC(=O)n1nc(OC)n(C)c1=O [Example 13],very strong activity,very strong activity,80,90%,,95,0,95,100,90,100,100,100,90,100,0,
CSc1cccc(OC(F)(F)F)c1S(=O)(=O)NC(=O)n1nc(SC)n(C)c1=O [Example 33],,very strong activity,,,,,,,100,100,100,100,100,100,100,10,
CCc1nn(C(=O)NS(=O)(=O)c2c(SC)cccc2C(F)(F)F)c(=O)n1C [Example 63],,very strong activity,,,,,,,,,,,,,,,"% damage, Sorghum (Sorghum [6]; 60 g ai./ha): 100%; % damage, Lolium (Lolium [7]; 60 g ai./ha): 70%; % damage, Chenopodium (Chenopodium; 60 g ai./ha): 100%; % damage, Amaranthus (Amaranthus; 60 g ai./ha): 100%; % damage, Alopecurus (Alopecurus [8]; 60 g ai./ha): 100%; % damage, Solanum (Solanum [9]; 60 g ai./ha): 100%; % damage, Maize (Maize; 60 g ai./ha): 0%"
CCSc1cccc(C(F)(F)F)c1S(=O)(=O)NC(=O)n1nc(SC)n(C)c1=O [Example 14],,very strong activity,,,,,,,90,,100,100,70,100,100,0,
COc1cccc(SCCF)c1S(=O)(=O)NC(=O)n1nc(OC)n(C)c1=O [Example 57],,very strong activity,,,,,,,100,100,,100,100,100,,,
CCSc1cccc(SCC)c1S(=O)(=O)NC(=O)n1nc(OC)n(C)c1=O [Example 46],very strong activity,,70,9S,100,95,,95,,,,,,,,,
CCOc1nn(C(=O)NS(=O)(=O)c2c(C)cccc2SC)c(=O)n1C [Example 48],very strong activity,,100,90%,95,60,5,90,,,,,,,,,
